Laboratory results from PubChem BioAssay (NCI).
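How tested: cells in 96-well plates exposed to compound for 48 hours at five concentrations. GI50: concentration for 50% inhibition of growth. The concentration for full growth arrest is given as TGI.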

Key:
Assay in all cases: DTP human tumour cell line panel, 48 h; in the data active = GI50 below about 0.43 µM; inactive = the rest
786-0 renal = test system: 786-0 renal
A549 NSCLC = test system: A549 NSCLC
ACHN renal = test system: ACHN renal
BT-549 breast = test system: BT-549 breast
CAKI-1 renal = test system: CAKI-1 renal
CCRF-CEM leukemia = test system: CCRF-CEM leukemia
COLO 205 colon = test system: COLO 205 colon
DU-145 prostate = test system: DU-145 prostate
EKVX NSCLC = test system: EKVX NSCLC
HCC-2998 colon = test system: HCC-2998 colon
HCT-116 colon = test system: HCT-116 colon
HCT-15 colon = test system: HCT-15 colon
HOP-62 NSCLC = test system: HOP-62 NSCLC
HOP-92 NSCLC = test system: HOP-92 NSCLC
HT29 colon = test system: HT29 colon
IGROV1 ovarian = test system: IGROV1 ovarian
K-562 leukemia = test system: K-562 leukemia
KM12 colon = test system: KM12 colon
LOX IMVI melanoma = test system: LOX IMVI melanoma
M14 melanoma = test system: M14 melanoma
MALME-3M melanoma = test system: MALME-3M melanoma
MCF7 breast = test system: MCF7 breast
MDA-MB-231 breast = test system: MDA-MB-231 breast
MDA-MB-435 = test system: MDA-MB-435
MDA-N = test system: MDA-N
MOLT-4 leukemia = test system: MOLT-4 leukemia
NCI-H226 lung = test system: NCI-H226 lung
NCI-H23 lung = test system: NCI-H23 lung
NCI-H460 lung = test system: NCI-H460 lung
NCI-H522 lung = test system: NCI-H522 lung
NCI/ADR-RES ovarian = test system: NCI/ADR-RES ovarian
OVCAR-3 ovarian = test system: OVCAR-3 ovarian
OVCAR-4 ovarian = test system: OVCAR-4 ovarian
OVCAR-5 ovarian = test system: OVCAR-5 ovarian
OVCAR-8 ovarian = test system: OVCAR-8 ovarian
PC-3 prostate = test system: PC-3 prostate
RPMI-8226 leukemia = test system: RPMI-8226 leukemia
RXF 393 renal = test system: RXF 393 renal
SF-268 CNS = test system: SF-268 CNS
SF-295 CNS = test system: SF-295 CNS
SF-539 CNS = test system: SF-539 CNS
SK-MEL-2 melanoma = test system: SK-MEL-2 melanoma
SK-MEL-28 melanoma = test system: SK-MEL-28 melanoma
SK-MEL-5 melanoma = test system: SK-MEL-5 melanoma
SK-OV-3 ovarian = test system: SK-OV-3 ovarian
SN12C renal = test system: SN12C renal
SNB-19 CNS = test system: SNB-19 CNS
SNB-75 CNS = test system: SNB-75 CNS
SR leukemia = test system: SR leukemia
SW-620 colon = test system: SW-620 colon
TK-10 renal = test system: TK-10 renal
U251 CNS = test system: U251 CNS
UACC-257 melanoma = test system: UACC-257 melanoma
UACC-62 melanoma = test system: UACC-62 melanoma
UO-31 renal = test system: UO-31 renal
A498 renal = test system: A498 renal
HL-60(TB) leukemia = test system: HL-60(TB) leukemia
HS 578T breast = test system: HS 578T breast
T-47D breast = test system: T-47D breast

COC(=O)[C@@]12CCCC(=O)[C@@H]1[C@H]1CCCC[C@H]12
> 100 µM: TGI (786-0 renal) | TGI (A549 NSCLC) | TGI (ACHN renal) | TGI (BT-549 breast) | TGI (CAKI-1 renal) | TGI (CCRF-CEM leukemia) | TGI (COLO 205 colon) | TGI (DU-145 prostate) | TGI (EKVX NSCLC) | TGI (HCC-2998 colon) | TGI (HCT-116 colon) | TGI (HCT-15 colon) | TGI (HOP-62 NSCLC) | TGI (HOP-92 NSCLC) | TGI (HT29 colon) | TGI (IGROV1 ovarian) | TGI (K-562 leukemia) | TGI (KM12 colon) | TGI (LOX IMVI melanoma) | TGI (M14 melanoma) | TGI (MALME-3M melanoma) | TGI (MCF7 breast) | TGI (MDA-MB-231 breast) | TGI (MDA-MB-435) | TGI (MDA-N) | TGI (MOLT-4 leukemia) | TGI (NCI-H226 lung) | TGI (NCI-H23 lung) | TGI (NCI-H460 lung) | TGI (NCI-H522 lung) | TGI (NCI/ADR-RES ovarian) | TGI (OVCAR-3 ovarian) | TGI (OVCAR-4 ovarian) | TGI (OVCAR-5 ovarian) | TGI (OVCAR-8 ovarian) | TGI (PC-3 prostate) | TGI (RPMI-8226 leukemia) | TGI (RXF 393 renal) | TGI (SF-268 CNS) | TGI (SF-295 CNS) | TGI (SF-539 CNS) | TGI (SK-MEL-2 melanoma) | TGI (SK-MEL-28 melanoma) | TGI (SK-MEL-5 melanoma) | TGI (SK-OV-3 ovarian) | TGI (SN12C renal) | TGI (SNB-19 CNS) | TGI (SNB-75 CNS) | TGI (SR leukemia) | TGI (SW-620 colon) | TGI (TK-10 renal) | TGI (U251 CNS) | TGI (UACC-257 melanoma) | TGI (UACC-62 melanoma) | TGI (UO-31 renal)

O=c1[nH]nc(Cc2ccccc2)n1-n1cnnc1
> 100 µM: TGI (786-0 renal) | TGI (A549 NSCLC) | TGI (ACHN renal) | TGI (BT-549 breast) | TGI (CCRF-CEM leukemia) | TGI (COLO 205 colon) | TGI (DU-145 prostate) | TGI (EKVX NSCLC) | TGI (HCC-2998 colon) | TGI (HCT-116 colon) | TGI (HCT-15 colon) | TGI (HOP-62 NSCLC) | TGI (HOP-92 NSCLC) | TGI (HT29 colon) | TGI (IGROV1 ovarian) | TGI (K-562 leukemia) | TGI (KM12 colon) | TGI (LOX IMVI melanoma) | TGI (M14 melanoma) | TGI (MCF7 breast) | TGI (MDA-MB-231 breast) | TGI (MDA-MB-435) | TGI (MDA-N) | TGI (MOLT-4 leukemia) | TGI (NCI-H23 lung) | TGI (NCI-H522 lung) | TGI (NCI/ADR-RES ovarian) | TGI (OVCAR-3 ovarian) | TGI (OVCAR-4 ovarian) | TGI (OVCAR-5 ovarian) | TGI (OVCAR-8 ovarian) | TGI (PC-3 prostate) | TGI (RPMI-8226 leukemia) | TGI (RXF 393 renal) | TGI (SF-268 CNS) | TGI (SF-295 CNS) | TGI (SF-539 CNS) | TGI (SK-MEL-2 melanoma) | TGI (SK-MEL-28 melanoma) | TGI (SK-MEL-5 melanoma) | TGI (SK-OV-3 ovarian) | TGI (SN12C renal) | TGI (SNB-19 CNS) | TGI (SNB-75 CNS) | TGI (SR leukemia) | TGI (SW-620 colon) | TGI (TK-10 renal) | TGI (U251 CNS) | TGI (UACC-257 melanoma) | TGI (UACC-62 melanoma) | TGI (UO-31 renal)

COc1cc(S(C)(=O)=O)ccc1Nc1nc2ccc(-c3ccc(NC(=O)[C@H](C)c4ccc(F)cc4)cc3)cn2n1
> 100 µM: TGI (786-0 renal) | TGI (A498 renal) | TGI (A549 NSCLC) | TGI (ACHN renal) | TGI (BT-549 breast) | TGI (CAKI-1 renal) | TGI (CCRF-CEM leukemia) | TGI (COLO 205 colon) | TGI (DU-145 prostate) | TGI (EKVX NSCLC) | TGI (HCC-2998 colon) | TGI (HCT-116 colon) | TGI (HCT-15 colon) | TGI (HL-60(TB) leukemia) | TGI (HOP-62 NSCLC) | TGI (HOP-92 NSCLC) | TGI (HS 578T breast) | TGI (HT29 colon) | TGI (IGROV1 ovarian) | TGI (K-562 leukemia) | TGI (KM12 colon) | TGI (LOX IMVI melanoma) | TGI (M14 melanoma) | TGI (MALME-3M melanoma) | TGI (MCF7 breast) | TGI (MDA-MB-231 breast) | TGI (MDA-MB-435) | TGI (MOLT-4 leukemia) | TGI (NCI-H226 lung) | TGI (NCI-H23 lung) | TGI (NCI-H460 lung) | TGI (NCI-H522 lung) | TGI (NCI/ADR-RES ovarian) | TGI (OVCAR-3 ovarian) | TGI (OVCAR-4 ovarian) | TGI (OVCAR-5 ovarian) | TGI (OVCAR-8 ovarian) | TGI (PC-3 prostate) | TGI (RPMI-8226 leukemia) | TGI (RXF 393 renal) | TGI (SF-268 CNS) | TGI (SF-295 CNS) | TGI (SF-539 CNS) | TGI (SK-MEL-2 melanoma) | TGI (SK-MEL-28 melanoma) | TGI (SK-MEL-5 melanoma) | TGI (SK-OV-3 ovarian) | TGI (SN12C renal) | TGI (SNB-19 CNS) | TGI (SNB-75 CNS) | TGI (SR leukemia) | TGI (SW-620 colon) | TGI (T-47D breast) | TGI (TK-10 renal) | TGI (U251 CNS) | TGI (UACC-257 melanoma) | TGI (UACC-62 melanoma) | TGI (UO-31 renal)
active: GI50 (COLO 205 colon) 0.0838 µM | GI50 (HCT-116 colon) 0.0828 µM | GI50 (HCT-15 colon) 0.075 µM | GI50 (NCI-H460 lung) 0.0821 µM | GI50 (SK-MEL-5 melanoma) 0.4 µM | GI50 (SR leukemia) 0.211 µM
inactive: GI50 (786-0 renal) > 100 µM | GI50 (A498 renal) > 100 µM | GI50 (A549 NSCLC) 98.5 µM | GI50 (ACHN renal) > 83.5 µM | GI50 (BT-549 breast) > 63.8 µM | GI50 (CAKI-1 renal) > 100 µM | GI50 (CCRF-CEM leukemia) 0.62 µM | GI50 (DU-145 prostate) > 100 µM | GI50 (EKVX NSCLC) > 100 µM | GI50 (HCC-2998 colon) > 100 µM | GI50 (HL-60(TB) leukemia) 12.9 µM | GI50 (HOP-62 NSCLC) > 100 µM | GI50 (HOP-92 NSCLC) > 51.1 µM | GI50 (HS 578T breast) > 63.4 µM | GI50 (IGROV1 ovarian) > 100 µM | GI50 (K-562 leukemia) > 78.7 µM | GI50 (KM12 colon) > 72.4 µM | GI50 (LOX IMVI melanoma) 10.6 µM | GI50 (M14 melanoma) 33.2 µM | GI50 (MALME-3M melanoma) > 100 µM | GI50 (MCF7 breast) 0.749 µM | GI50 (MDA-MB-231 breast) 26.6 µM | GI50 (MDA-MB-435) > 100 µM | GI50 (MOLT-4 leukemia) 1.18 µM | GI50 (NCI-H226 lung) > 100 µM | GI50 (NCI-H23 lung) > 100 µM | GI50 (NCI-H522 lung) > 100 µM | GI50 (NCI/ADR-RES ovarian) > 20.6 µM | GI50 (OVCAR-3 ovarian) > 100 µM | GI50 (OVCAR-4 ovarian) > 100 µM | GI50 (OVCAR-5 ovarian) > 100 µM | GI50 (OVCAR-8 ovarian) 9.36 µM | GI50 (PC-3 prostate) 4.29 µM | GI50 (RPMI-8226 leukemia) 0.847 µM | GI50 (RXF 393 renal) > 48.5 µM | GI50 (SF-268 CNS) > 100 µM | GI50 (SF-295 CNS) > 100 µM | GI50 (SF-539 CNS) > 39.8 µM | GI50 (SK-MEL-2 melanoma) > 100 µM | GI50 (SK-MEL-28 melanoma) > 100 µM | GI50 (SK-OV-3 ovarian) > 100 µM | GI50 (SN12C renal) > 100 µM | GI50 (SNB-19 CNS) > 100 µM | GI50 (SNB-75 CNS) 47.1 µM | GI50 (SW-620 colon) 17.1 µM | GI50 (T-47D breast) 0.596 µM | GI50 (TK-10 renal) > 100 µM | GI50 (U251 CNS) 35.9 µM | GI50 (UACC-257 melanoma) > 100 µM | GI50 (UACC-62 melanoma) 75.6 µM | GI50 (UO-31 renal) > 100 µM
